# Substitutions are numbered along the chain they refer to.
# Legend:
# Assay in all cases: whole-cell patch clamp, HEK […]
# sTRP1 (scorpion TRP1) [1] = system: T1, sTRP1 (scorpion TRP1); assay type: cell-based, Olivierus martensii; conditions: current evoked by 2 mM citronellal after sensitization
# T1 construct: full-length cDNA (791 residues) cloned by RACE PCR, in pIRES2-EGFP vector, transiently expressed in HEK 293T cells
# sTRP1 (scorpion TRP1) [2] = system: T1, sTRP1 (scorpion TRP1); assay type: cell-based, Olivierus martensii; conditions: agonist, after full sensitization
# dTRPγ [3] = target: T2, dTRPγ (Drosophila melanogaster, UniProt Q9VJJ7); assay type: cell-based
# T2 construct: gene Trpgamma
# T2 sequence (Q9VJJ7 1-1128): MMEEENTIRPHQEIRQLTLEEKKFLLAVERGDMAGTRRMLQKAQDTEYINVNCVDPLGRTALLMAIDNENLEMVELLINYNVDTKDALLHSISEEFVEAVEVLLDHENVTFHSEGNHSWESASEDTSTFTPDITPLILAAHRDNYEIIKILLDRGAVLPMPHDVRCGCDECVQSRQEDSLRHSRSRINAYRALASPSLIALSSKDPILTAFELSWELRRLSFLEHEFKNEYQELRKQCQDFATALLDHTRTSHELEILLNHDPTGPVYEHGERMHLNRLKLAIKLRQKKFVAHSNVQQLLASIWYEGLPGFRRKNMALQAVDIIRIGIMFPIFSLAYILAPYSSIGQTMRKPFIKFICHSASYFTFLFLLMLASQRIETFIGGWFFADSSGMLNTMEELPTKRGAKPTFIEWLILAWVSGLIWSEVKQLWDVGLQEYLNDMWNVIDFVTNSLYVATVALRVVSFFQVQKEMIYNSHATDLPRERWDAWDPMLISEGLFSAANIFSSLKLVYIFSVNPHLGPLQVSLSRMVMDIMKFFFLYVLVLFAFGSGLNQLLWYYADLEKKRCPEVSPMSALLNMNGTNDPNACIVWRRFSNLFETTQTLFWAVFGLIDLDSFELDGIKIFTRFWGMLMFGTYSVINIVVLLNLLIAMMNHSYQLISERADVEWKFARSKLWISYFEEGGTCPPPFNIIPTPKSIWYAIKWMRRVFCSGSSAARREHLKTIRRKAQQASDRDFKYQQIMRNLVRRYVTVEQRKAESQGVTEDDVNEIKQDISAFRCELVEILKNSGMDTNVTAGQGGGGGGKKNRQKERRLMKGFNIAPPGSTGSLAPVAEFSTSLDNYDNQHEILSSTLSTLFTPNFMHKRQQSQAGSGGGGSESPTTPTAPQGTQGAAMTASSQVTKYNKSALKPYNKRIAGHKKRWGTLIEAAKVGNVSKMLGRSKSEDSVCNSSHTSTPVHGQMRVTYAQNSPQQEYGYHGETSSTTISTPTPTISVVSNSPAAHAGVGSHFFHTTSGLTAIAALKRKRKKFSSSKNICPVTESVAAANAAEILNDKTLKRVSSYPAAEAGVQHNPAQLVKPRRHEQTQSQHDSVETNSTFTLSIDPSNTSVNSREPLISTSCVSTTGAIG
# dTRPγ [4] = target: T2, dTRPγ; assay type: cell-based; conditions: dTRPγ mutant
# dTRPγ [5] = target: T3, dTRPγ (Drosophila melanogaster, UniProt Q9VJJ7, V515A); assay type: cell-based; conditions: dTRPγ mutant
# T3 construct: gene Trpgamma
# T3 sequence (Q9VJJ7 1-1128 V515A): T2 sequence (Q9VJJ7 1-1128) with V515A
# dTRPγ [6] = target: T2, dTRPγ; assay type: cell-based; conditions: agonist
compound,measurement,setting,value
NCCOB(c1ccccc1)c1ccccc1 [2-aminoethoxydiphenyl borate],IC50,"sTRP1 (scorpion TRP1) [1]; inhibitor, nH 1.3",48.3 ± 5.58 µM
CC(C)=CCCC(C)CC=O (centres unmarked) [citronellal],EC50,sTRP1 (scorpion TRP1) [2]; nH 3.3,560 ± 10 µM
same,EC50,dTRPγ [3],870 ± 50 µM
same,"whole-cell patch clamp, HEK 293T",dTRPγ [4],mutant V513L reduced the response to citronellal and citronellol
Cl.Cl.Cl.Cl.Cl.Cl.N.N.N.N.N.N.N.N.N.N.N.N.N.N.[O-2].[O-2].[Ru+3].[Ru+3].[Ru+4] [ruthenium red],IC50,"sTRP1 (scorpion TRP1) [1]; channel blocker, nH 1.6",3.12 ± 0.29 µM
CC(C)=CCCC(C)CCO (centres unmarked) [citronellol],EC50,sTRP1 (scorpion TRP1) [2]; nH 3.6,300 ± 10 µM
same,EC50,dTRPγ [3],490 ± 20 µM
same,"whole-cell patch clamp, HEK 293T",dTRPγ [5],the V515A substitution selectively impaired the sensitivity to citronellol and camphor
same,"whole-cell patch clamp, HEK 293T",dTRPγ [4],mutant V513L reduced the response to citronellal and citronellol
CC12CCC(CC1=O)C2(C)C (centres unmarked) [camphor],EC50,sTRP1 (scorpion TRP1) [2]; nH 2.4,3300 ± 200 µM
same,"whole-cell patch clamp, HEK 293T",dTRPγ [6],"We here show that camphor activates both sTRP1 and dTRPγ (SI Appendix, Fig. S11)"
